For eleven molecules, IC50 results are on record in patent US7423177B2, “Carboxamide derivatives as therapeutic agents” (TransTech Pharma, Inc., priority 2001, dated 2008).

In experiment [1] the target is T1, RAGE (sRAGE) binding to β-amyloid (Homo sapiens, UniProt Q15109).
T1 construct: extracellular domain can be isolated by proteolysis of RAGE to generate soluble RAGE (sRAGE) comprised of the V and C domains
The experiment can be described thus: ELISA assay: inhibition of sRAGE binding to plate-bound β-amyloid. As to conditions: ligand β-amyloid coated on plate, concentration at which 50% signal has been inhibited. Here is the method:
(§1) This method is also described and claimed in co-pending U.S. Ser. No. 09/799,152 filed Mar. 5, 2001.
(§2) S100b, β-amyloid and CML (500 ng/100 μL/well) in 100 mM sodium bicarbonate/sodium carbonate buffer (pH 9.8) is loaded onto the wells of a NUNC Maxisorp flat bottom 96 -well microtitre plate. The plate is incubated at 4° C. overnight. The wells are aspirated and treated with 50 mM imidazole buffer saline (pH 7.2) (with 1 mM CaCl2/MgCl2) containing 1% bovine serum albumin (BSA) (300 μL/well) for two h at 37° C.
(§3) Test compounds are dissolved in nanopure water (concentration: 10-100 μM). DMSO may be used as co-solvent. 25 μL of test compound solution in 2% DMSO is added, along with 75 μL SRAGE (4.0×10^−4 mg/mL FAC) to each well and samples are incubated for 1 h at 37° C. The wells are washed 3 times with 155 mM NaCl pH 7.2 buffer saline and are soaked 10 seconds between each wash.
(§4) Non-Radioactive Binding is Performed by Adding:
(§5) 10 μL Biotinylated goat F(ab′)2 Anti-mouse IgG. (8.0×10^−4 mg/mL, FAC)
(§6) 10 μL Alk-phos-Sterptavidin (3×10^−3 mg/mL FAC)
(§7) 10 μL Polyclonal antibody for sRAGE (FAC 6.0×10^−3 mg/mL)
(§8) to 5 mL 50 mM imidazole buffer saline (pH 7.2) containing 0.2% bovine serum albumin and 1 mM […]. The mixture is incubated for 30 minutes at 37° C. 100 μL complex is added to each well and incubation is allowed to proceed at rt for 1 h. Wells are washed 3 times with wash buffer and soaked 10 s between each wash. 100 μL 1 mg/mL (pNPP) in 1 M diethanolamine (pH adjusted to 9.8 with HCl) is added. Color is allowed to develop in the dark for 1 to 2 h at rt. The reaction is quenched with 10 μL of stop solution (0.5 N NaOH in 50% ethanol) and the absorbance is measured spectrophotometrically with a microplate reader at 405 nm.
Background: An ELISA detects its analyte on a solid surface through an enzyme-linked reagent.

Experiment [2] deals with T2, RAGE (sRAGE) binding to Carboxymethyl Lysine (CML) (Homo sapiens, UniProt Q15109).
T2 construct: extracellular domain can be isolated by proteolysis of RAGE to generate soluble RAGE (sRAGE) comprised of the V and C domains
T2 sequence (Q15109 23-342 limits assumed): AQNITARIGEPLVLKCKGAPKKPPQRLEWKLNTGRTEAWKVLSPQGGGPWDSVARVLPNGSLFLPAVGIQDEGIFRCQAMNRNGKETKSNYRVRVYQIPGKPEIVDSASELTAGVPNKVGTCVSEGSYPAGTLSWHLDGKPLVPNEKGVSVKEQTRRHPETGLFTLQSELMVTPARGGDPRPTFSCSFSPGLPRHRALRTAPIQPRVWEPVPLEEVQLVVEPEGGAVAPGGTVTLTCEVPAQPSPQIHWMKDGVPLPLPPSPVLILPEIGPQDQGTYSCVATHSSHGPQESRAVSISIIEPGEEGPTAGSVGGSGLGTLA
Nature of the experiment: ELISA assay: inhibition of sRAGE binding to plate-bound CML. To be noted: ligand CML coated on plate, concentration at which 50% signal has been inhibited. The protocol: as §1, §2, §3, §4, §5, §6, §7, §8

Experiment [3] has as its target T3, RAGE (sRAGE) binding to S100b (Homo sapiens, UniProt Q15109).
T3 construct: extracellular domain can be isolated by proteolysis of RAGE to generate soluble RAGE (sRAGE) comprised of the V and C domains
The experiment can be described thus: ELISA assay: inhibition of sRAGE binding to plate-bound S100b. As to conditions: ligand S100b coated on plate, concentration at which 50% signal has been inhibited, read-out: ELISA Assay IC50 (μM) S-100b. Here is the method:
as §1, §2, §3, §4, §5, §6, §7, §8

Where only a bound is given, the exact number is not on record here.

What is called IC50 is the concentration at which inhibition is half-maximal.

T1 sequence (Q15109 23-342 limits assumed): as above
T3 sequence (Q15109 23-342 limits assumed): as above

With `CCCCOc1cc(OCCCN(CC)CC)ccc1NC(=O)C(CC1CCN(C(=O)OC(C)(C)C)CC1)NC(=O)OCC1c2ccccc2-c2ccccc21` (stereo not drawn) [Example 22, 3-(1-Tert-butoxycarbonylpiperidin-4-yl)-2-(9-fluorenylmethoxycarbonylamino)propionic Acid 4-Diethylaminopropoxy-2-butoxyaniline Amide], the IC50 in experiment [1] fell in the range of 0.5 to 1 µM; in experiment [2], 0.5 to 1 µM; in experiment [3] it was 1 to 5 µM.

In the case of `CCCCN(C(=O)[C@@H](Cc1ccc(OCc2ccccc2)cc1)NC(=O)OC(C)(C)C)c1cccc(OCCCN(CC)CC)c1` [Example 20, (2R)-2-tert-butoxycarbonylamino-3-[4-(benzyloxy)phenyl]propionic Acid 3-(3-diethylaminopropoxy)-N-butylaniline Amide], the half-inhibitory concentration (IC50) in experiment [1], in experiment [2] and in experiment [3] was 1 to 5 µM each time.

For the molecule `CCCCOc1cc(OCCCN(CC)CC)ccc1NC(=O)C(CC1CCNCC1)NC(=O)OCC1c2ccccc2-c2ccccc21` (stereo not drawn) [Example 23, 3-(Piperidin-4-yl)-2-(9-fluorenylmethoxycarbonylamino)propionic Acid 4-Diethylaminopropoxy-2-butoxyaniline Amide], the IC50 was in the range of 0.5 to 1 µM in experiment [1], 1 to 5 µM in experiment [2] and 0.5 to 1 µM in experiment [3].

Take `CCN(CC)CCCOc1ccc(NC(=O)CC(NC(=O)OCC2c3ccccc3-c3ccccc32)c2cccc(OC(C)(C)C)c2)c(OCCCN(CC)CC)c1` (stereo not drawn) [Example 2, 3-(3-Tert-butoxyphenyl)-3-(9-fluorenylmethoxycarbonylamino)propionic Acid 2,4-Di-(3-diethylaminopropoxy)aniline Amide]: the figures for the IC50 in experiment [1], in experiment [2] and in experiment [3] were 1 to 5 µM, 0.5 to 1 µM and below 0.5 µM, respectively.

Regarding `CCN(CC)CCCOc1ccc(NC(=O)CC(N)c2ccc(OC(C)(C)C)cc2)c(OCCCN(CC)CC)c1` (stereo not drawn) [Example 9, 3-amino-3-(4-tert-butoxyphenyl)propionic Acid 2,4-Di-(3-diethylaminopropoxy)anline Amide], the IC50 in experiment [1], in experiment [2] and in experiment [3] was 1 to 5 µM each time.

Turning to `CCN(CC)CCCOc1ccc(NC(=O)CC(NC(=O)OCC2c3ccccc3-c3ccccc32)c2ccccc2OC(C)(C)C)c(OCCCN(CC)CC)c1` (stereo not drawn) [Example 10, 3-(9-fluorenylmethoxycarbonylamino)-3-(2-tert-butoxyphenyl)propionic Acid 2,4-Di-(3-diethylaminopropoxy)aniline Amide], the values for the IC50 in experiment [1], in experiment [2] and in experiment [3] were 1 to 5 µM, 1 to 5 µM and 0.5 to 1 µM, respectively.

As to `CCN(CC)CCCOc1ccc(N(CC2CCCCC2)C(=O)[C@H](N)Cc2ccc(OCc3ccccc3)cc2)cc1` [Example 16, (2R)-2-amino-3-[4-(benzyloxy)phenyl]propionic Acid 4-(3-diethylaminopropoxy)-N-cyclohexylmethylaniline Amide], the IC50 in experiment [1], in experiment [2] and in experiment [3] was 1 to 5 µM each time.

With `CCCCOc1cc(OCCCN(CC)CC)ccc1NC(=O)C(CC1CCN(Cc2ccccc2)CC1)NC(=O)OCC1c2ccccc2-c2ccccc21` (stereo not drawn) [Example 24, 3-(1-Benzylpiperidin-4-yl)-2-(9-fluorenylmethoxycarbonylamino)propionic Acid 4-Diethylaminopropoxy-2-butoxyaniline Amide], the half-maximal inhibitory concentration (IC50) in experiment [1] was 0.5 to 1 µM; in experiment [2], below 0.5 µM; in experiment [3] it was 0.5 to 1 µM.

In the case of `CCCCOc1cc(OCCCN(CC)CC)ccc1NC(=O)C(CC1CCN(C(=O)c2ccccc2)CC1)NC(=O)c1ccccc1` (stereo not drawn) [Example 28, 3-(1-Benzoylpiperidin-4-yl)-2-benzoylaminopropionic Acid 4-Diethylaminopropoxy-2-butoxyaniline Amide], the IC50 is 5 to 10 µM in experiment [1], 1 to 5 µM in experiment [2] and 5 to 10 µM in experiment [3].

Regarding `CCCCOc1cc(OCCCN(CC)CC)ccc1NC(=O)C(CC1CCCN(C(=O)OC(C)(C)C)C1)NC(=O)OCC1c2ccccc2-c2ccccc21` (stereo not drawn) [Example 29, 3-(Tert-butoxycarbonylpiperidin-3-yl)-2-(9-fluorenylmethoxycarbonylamino)propionic Acid 4-Diethylaminopropoxy-2-butoxyaniline Amide], the IC50 in experiment [1], in experiment [2] and in experiment [3] was 1 to 5 µM throughout.

In the case of `CCCCOc1cc(OCCCN(CC)CC)ccc1NC(=O)C(CC1CCN(C(=O)c2ccccc2)CC1)NC(=O)OCC1c2ccccc2-c2ccccc21` (stereo not drawn) [Example 27, 3-(1 -Benzoylpiperidin-4-yl)-2-(9-fluorenylmethoxycarbonylamino)propionic Acid 4-Diethylaminopropoxy-2-butoxyaniline Amide], the IC50 in experiment [1], in experiment [2] and in experiment [3] was 1 to 5 µM each time.
